From US20210369677A1, “SMALL MOLECULE ACTIVATORS OF POLYCYSTIN-2 (PKD2) AND USES THEREOF” (Northwestern University, priority 2020, published 2021) come the findings set out here.

This assay addresses T1, polycystin-2 (Homo sapiens, UniProt Q13563).
T1 construct: expressed in transfected cells
T1 sequence (Q13563 1-968): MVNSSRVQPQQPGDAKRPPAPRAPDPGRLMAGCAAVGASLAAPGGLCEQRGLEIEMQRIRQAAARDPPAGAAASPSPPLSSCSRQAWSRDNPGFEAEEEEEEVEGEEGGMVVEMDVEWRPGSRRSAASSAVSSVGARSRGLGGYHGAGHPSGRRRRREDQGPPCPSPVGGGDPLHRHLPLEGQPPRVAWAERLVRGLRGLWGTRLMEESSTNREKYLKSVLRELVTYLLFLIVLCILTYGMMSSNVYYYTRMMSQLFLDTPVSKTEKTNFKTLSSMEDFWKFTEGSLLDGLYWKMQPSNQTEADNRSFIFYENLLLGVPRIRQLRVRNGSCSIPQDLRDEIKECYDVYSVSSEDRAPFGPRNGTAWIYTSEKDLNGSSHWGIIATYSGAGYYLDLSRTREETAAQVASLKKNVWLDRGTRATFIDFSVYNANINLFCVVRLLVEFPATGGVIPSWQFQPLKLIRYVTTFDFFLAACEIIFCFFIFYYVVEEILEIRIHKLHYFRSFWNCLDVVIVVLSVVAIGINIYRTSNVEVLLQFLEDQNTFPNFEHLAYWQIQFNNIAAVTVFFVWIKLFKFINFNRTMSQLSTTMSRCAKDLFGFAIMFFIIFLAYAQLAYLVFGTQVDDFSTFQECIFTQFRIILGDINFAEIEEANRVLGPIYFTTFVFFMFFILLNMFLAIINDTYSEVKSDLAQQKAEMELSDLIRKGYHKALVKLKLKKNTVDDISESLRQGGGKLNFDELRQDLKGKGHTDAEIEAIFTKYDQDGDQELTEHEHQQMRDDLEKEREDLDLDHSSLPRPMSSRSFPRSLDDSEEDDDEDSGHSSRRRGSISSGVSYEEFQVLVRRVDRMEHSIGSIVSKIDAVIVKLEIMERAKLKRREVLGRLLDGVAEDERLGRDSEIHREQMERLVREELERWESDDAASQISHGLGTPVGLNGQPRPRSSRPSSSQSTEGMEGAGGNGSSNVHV
Format: cell-based. To be noted: for Effect of external disulfide reducing agents on wild type polycystin-2 current: whole cilia configuration. From the text:
Generation of HEK PKD2^Null cells line and the stable expression PKD2 variants. To generate the HEK PKD2^Null cell lines, we used a CRISPR/Cas9 gene editing kit available from Addgene (kit 1000000055). HEK 293 cells were electro-transfected with sgRNAs (caccg[…] and aaac[…]c) with the All-in-one Cas9 plasmid. […] Cells generated from single cell clones were selected after 4 weeks of expansion in a 96-wells plate. […] To generate the WT and variant PKD2 GFP or mCherry C-terminally tagged variant cell lines, the hPKD gene was subcloned into lentiviral pLVX-mcherry-N1 (Clontech) or pLVX-GFP-N1 (Clontech) vector using the Gibson assembly method. A linker encoding for six glycine residues was added between the PKD2 gene and the C-terminal tags, and missense variants were generated using standard, site-directed mutagenesis. The third-generation lentiviral packaging plasmids used for stable expression contained: pMDLg/pRRE (Addgene), […] pRSV-Rev (Addgene), and envelope expressing plasmid pMD2.G (Addgene). LentiX-293T cells (Takara) were transfected with polyethylineimine (Polysciences) at a 4:1:1:1 ratio of the transgene and viral packaging constructs. Supernatants were collected 48 and 72 hours post transfection and filtered through a 0.45 μm syringe filter. Lentiviral supernatant was concentrated 100 times using 1 volume of PEG-it (System Biosciences) virus precipitation solution and 4 volume of lentivirus-containing supernatant. The PEG-it and supernatant mixture were kept at 4 degrees for 24 hours and centrifuged at 1500 rpm for 30 minutes. The pellet containing lentivirus was resuspended with 1/100th volume of PBS of the original supernatant volume. HEK cells were infected with the lentivirus supernatant; PKD2-GFP or PKD2-mCherry expression was selected using culture media containing puromycin (2 μg/ml) for 30 to 90 days. Cells were then fluorescence-activated cell sorted (BD FacsMelody) at 5000 to 10,000 counts per minute to enrich for the transgene expression. Stable cell lines were cultured in Dulbecco's modified essential medium (DMEM) supplemented with 10% fetal bovine serum (FBS) and 100 units/ml penicillin, 100 units/ml streptomycin and 1 μg/ml puromycin selection antibiotic.
Electrophysiology. Ciliary ion currents were recorded using borosilicate glass electrodes polished to resistances of 14-22 MΩ using the cilium patch method previously described^32. Whole cell electrodes used to measure poly cystin-2L1 currents were fire polished to 1.5-4 MΩ resistances. Unless otherwise stated, whole cilia ionic currents were recorded in symmetrical [Na^+]. The pipette standard internal solution contained (in mM): 90 NaMES, 10 NaCl, 10 HEPES, 10 Na4-BAPTA (Glycine, N, N′-[1,2-ethanediylbis(oxy-2,1-phenylene)]bis[N-(carboxymethyl)]-,tetrasodium); pH was adjusted to 7.3 using NaOH. Standard bath solution contained 140 NaCl, 10 HEPES, 1.8 CaCl2); pH 7.4. All solutions were osmotically balanced to 295 (±6) mOsm with mannitol. Extracellular solutions containing TCEP and GSH were used within six hours of formulation. Data were collected using an Axopatch 200B patch clamp amplifier, Digidata 1440A, and pClamp 10 software. Whole-cilium and excised patch currents were digitized at 25 kHz and low-pass filtered at 10 kHz. In the whole cilium configuration, the holding potential was −60 mV and then depolarized using a 400 ms voltage ramp from −100 mV to 100 mV. The whole cell recordings of polycystin-2L1 currents were either activated by the same ramp protocol or by 100 ms depolarizations to 100 mV from a −100 mV holding potential.

As for `N[C@@H](CCC(=O)N[C@@H](CS)C(=O)NCC(=O)O)C(=O)O` [GSH, reduced glutathione], the “Effect of external disulfide reducing agents on wild type polycystin-2 current” value is given as “near instantaneous reduction”.

Take `O=C(O)CCP(CCC(=O)O)CCC(=O)O` [TCEP, tris-2-carboxyethyl phosphine]: the “Effect of external disulfide reducing agents on wild type polycystin-2 current” value is “near instantaneous reduction”.

As to `[Gd]` [gadolinium], for the setting “10 μM, voltage ramps”, the “Block of ciliary WT polycystin-2 currents by trivalent ions” value is listed as “blocked”.
